Assay results taken from patent US5200422A, “Benzimidazole derivatives, their preparation and use” (priority 1991, dated 1993).
Where two headings read alike, the source gives them in different places.

How the values were obtained:
Format in all cases: cell-based
BKCa channel [1] = biological target: BKCa channel (Bos taurus, UniProt Q28204); assay: Patch-clamp, cultured bovine aortic smooth muscle cells
Procedure: (§1) All experiments were performed with patch-clamp technique (Hamill et al., Pflugers Arch. 391, 85-100 (1981). The ion composition of the internal solution was (in mM) 4 NaCl, 140 KCl, 1 CaCl2, 1 MgCl2, 2 EGTA, 10 HEPES and the external solution contained 140 NaCl, 4 KCl, 2 CaCl2, 1 MgCl2 and 10 HEPES.

BKCa channel [2] = assay: Single channel experiments, inside-out patches of cerebellar granule cell membrane
Procedure: as §1
In inside-out patches of cerebellar granule cell membrane single BKCa channels were activated by for example 5-trifluoromethyl-1-(5-chloro-2-hydroxyphenyl)-1,3-dihydro-2H-benzimidazole-2-one (3-10 μM), 5-trifluoromethyl-I-(2-hydroxyphenyl)-1,3-dihydro-2H-benzimidazole-2-one ([…]), 5-trifluoromethyl-1-(5-phenyl-2-hydroxyphenyl)-1,3-dihydro-2H-benzimidazole-2-one (3-30 μM). […] No effect was found on the delayed rectifier K^+ channel or on the Cl^- channels also present in the patches.
(§2) The BKCa channel in granule cells has been studied in symmetric 144 mM K^+, and under these conditions the average conductance is 154 pS (76 pS with 4 mM external K^+).

[3] = system: N1E-115 neuroblastoma cells; assay: Whole cell recordings: membrane potential in current clamp mode; conditions: 30 μM to the bath
Procedure: as §1
The membrane potential of N1E-115 neuroblastoma cells was determined in whole-cell recordings using current clamp mode (HEKA EPC-9 patch-clamp amplifier) Due to the high-resistance seal and the large size of these cells, the recorded membrane potential stayed stable for periods of 30-60 min, although at somewhat depolarized values (-15--60 Mv).
The equilibrium potentials for K^+, Cl^-, and Na^+ in these experiments were -90 mV, 0 mV, and +90 mV, respectively (cf. ion composition above) Thus, since potassium is the only ion having a reversal potential more negative than the resting membrane potential, the observed hyperpolarization induced by the test compound must be explained through an increased potassium conductance.

160-180 pS BKCa channel = assay: Patch-clamp, cultured guinea pig tracheal smooth muscle cells
Procedure: as §1

BKCa channel [4] = assay: Outside-out patches of granule cells, channel block; conditions: silent periods interdispersed with periods of low or normal activity
Procedure: as §1, §2

BKCa channel (Bos taurus, UniProt Q28204), sequence (Q28204 whole entry): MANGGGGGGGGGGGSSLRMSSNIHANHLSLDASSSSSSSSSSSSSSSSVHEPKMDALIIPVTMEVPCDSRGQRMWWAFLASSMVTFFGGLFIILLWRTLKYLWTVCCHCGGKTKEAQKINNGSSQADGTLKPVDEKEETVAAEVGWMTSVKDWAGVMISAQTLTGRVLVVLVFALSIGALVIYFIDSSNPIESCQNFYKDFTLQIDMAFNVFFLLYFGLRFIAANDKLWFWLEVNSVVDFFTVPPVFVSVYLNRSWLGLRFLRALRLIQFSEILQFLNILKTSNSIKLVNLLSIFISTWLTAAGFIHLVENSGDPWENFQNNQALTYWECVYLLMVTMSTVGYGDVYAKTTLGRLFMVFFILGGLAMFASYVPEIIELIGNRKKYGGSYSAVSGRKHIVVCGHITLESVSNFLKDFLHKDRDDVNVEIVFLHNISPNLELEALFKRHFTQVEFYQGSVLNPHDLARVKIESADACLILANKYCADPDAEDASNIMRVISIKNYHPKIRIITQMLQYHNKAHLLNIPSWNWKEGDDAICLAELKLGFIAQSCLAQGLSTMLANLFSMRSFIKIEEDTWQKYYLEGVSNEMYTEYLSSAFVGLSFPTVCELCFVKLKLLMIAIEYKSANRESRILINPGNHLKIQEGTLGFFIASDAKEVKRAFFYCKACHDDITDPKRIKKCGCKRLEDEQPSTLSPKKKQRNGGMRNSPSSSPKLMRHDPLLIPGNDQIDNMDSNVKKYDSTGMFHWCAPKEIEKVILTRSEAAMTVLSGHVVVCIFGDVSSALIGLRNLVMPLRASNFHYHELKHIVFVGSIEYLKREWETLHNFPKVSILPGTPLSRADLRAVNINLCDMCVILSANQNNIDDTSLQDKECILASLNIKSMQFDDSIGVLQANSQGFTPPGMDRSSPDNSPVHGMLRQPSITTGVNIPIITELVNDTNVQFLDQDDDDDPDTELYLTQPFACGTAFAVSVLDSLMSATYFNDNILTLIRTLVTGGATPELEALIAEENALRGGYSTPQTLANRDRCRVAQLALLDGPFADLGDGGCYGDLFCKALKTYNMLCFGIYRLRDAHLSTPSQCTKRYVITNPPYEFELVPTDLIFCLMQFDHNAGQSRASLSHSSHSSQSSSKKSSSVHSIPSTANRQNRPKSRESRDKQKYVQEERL
BKCa channel (Bos taurus, UniProt Q28204), sequence (Q28067 whole entry partner): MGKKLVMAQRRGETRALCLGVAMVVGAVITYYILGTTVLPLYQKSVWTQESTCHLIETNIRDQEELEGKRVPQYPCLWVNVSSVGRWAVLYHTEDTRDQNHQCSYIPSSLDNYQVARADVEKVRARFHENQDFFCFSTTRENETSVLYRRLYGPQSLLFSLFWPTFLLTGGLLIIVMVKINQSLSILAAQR

Question: How did the “activation of the BKCa channel” value (BKCa channel [1]; 3-30 μM) turn out when `Oc1ccccc1-n1c(=S)[nH]c2cc(C(F)(F)F)ccc21` [1,3-dihydro-1-(2-hydroxyphenyl)-5-trifluoromethyl-2H-benzimidazole-2-thion] was run?
Answer: Its value is “significantly activated”.

Question: `O=c1[nH]c2cc(C(F)(F)F)ccc2n1-c1cc2ccccc2cc1O` [1,3-dihydro-1-(3-hydroxy-2-naphthyl)-5-trifluoromethyl-2H-benzimidazol-2-one] was tested. Which “activation of the BKCa channel” value (BKCa channel [1]; 3-30 μM) did it give?
Answer: Its value is “significantly activated”.

Question: How did the “activation of the BKCa channel” value (BKCa channel [1]; 3-30 μM) turn out when `O=c1[nH]c2cc(Cl)c(Cl)cc2n1-c1cc(Cl)ccc1O` [1,3-dihydro-1-(5-chloro-2-hydroxyphenyl)-5,6-dichloro-2H-benzimidazole-2-one] was run?
Answer: The value was “significantly activated”.

Question: With `O=c1[nH]c2cc(C(F)(F)F)c([N+](=O)[O-])cc2n1-c1cc(Cl)cc([N+](=O)[O-])c1O` [1,3-dihydro-1-(5-chloro-3-nitro-2-hydroxyphenyl)-5-trifluoromethyl-6-nitro-2H-benzimidazol-2-one] as the molecule, how does the “activation of the BKCa channel” value (BKCa channel [1]; 1-3 μM) read?
Answer: The value was “significantly activated”.

Question: How did the “activation of single BKCa channels” value (BKCa channel [2]; 3-30 μM) turn out when `O=c1[nH]c2cc(C(F)(F)F)ccc2n1-c1cc(-c2ccccc2)ccc1O` [1,3-dihydro-1-(5-phenyl-2-hydroxyphenyl)-5-trifluoromethyl-2H-benzimidazol-2-one] was run?
Answer: The value was “activated”.

Question: And the “activation of the BKCa channel” value (BKCa channel [1]; 3-30 μM)?
Answer: The value was “significantly activated”.

Question: For `O=c1[nH]c2cc(C(F)(F)F)ccc2n1-c1cc(Cl)ccc1O` [1-(5-chloro-2-hydroxyphenyl)-5-trifluoromethyl-1,3-dihydro-2H-benzimidazol-2-one], which “delay before hyperpolarization of the cells” value [3] is on record?
Answer: The value was 1 to 3 min.

Question: And the average hyperpolarization ([3]; current clamp, SD=-5 Mv, n=8)?
Answer: The average hyperpolarization was -14 Mv.

Question: What about the “activation of single BKCa channels” value (BKCa channel [2]; 3-10 μM) of the same molecule?
Answer: Its value is “activated”.

Question: What about the “activation of the BKCa channel” value (BKCa channel [1]; 3-30 μM) of the same molecule?
Answer: The value was “significantly activated”.

Question: What about the “activation of the BKCa channel” value (160-180 pS BKCa channel) of the same molecule?
Answer: The value was “potently activated”.

Question: For `O=c1[nH]c2cc(C(F)(F)F)ccc2n1-c1ccccc1O` [5-trifluoromethyl-1,3-dihydro-1-(2-hydroxyphenyl)-2H-benzimidazol-2-one], which “activation of single BKCa channels” value (BKCa channel [2]) is on record?
Answer: The value was “activated”.

Question: For Charybdotoxin, which “block of the BKCa channel” value (BKCa channel [4]) is on record?
Answer: Its value is “blocks the channel”.
